Legend:
[1] = molecular target: T1, Prostaglandin G/H synthase 2 (Homo sapiens, UniProt P35354)
T1 sequence (P35354 whole entry): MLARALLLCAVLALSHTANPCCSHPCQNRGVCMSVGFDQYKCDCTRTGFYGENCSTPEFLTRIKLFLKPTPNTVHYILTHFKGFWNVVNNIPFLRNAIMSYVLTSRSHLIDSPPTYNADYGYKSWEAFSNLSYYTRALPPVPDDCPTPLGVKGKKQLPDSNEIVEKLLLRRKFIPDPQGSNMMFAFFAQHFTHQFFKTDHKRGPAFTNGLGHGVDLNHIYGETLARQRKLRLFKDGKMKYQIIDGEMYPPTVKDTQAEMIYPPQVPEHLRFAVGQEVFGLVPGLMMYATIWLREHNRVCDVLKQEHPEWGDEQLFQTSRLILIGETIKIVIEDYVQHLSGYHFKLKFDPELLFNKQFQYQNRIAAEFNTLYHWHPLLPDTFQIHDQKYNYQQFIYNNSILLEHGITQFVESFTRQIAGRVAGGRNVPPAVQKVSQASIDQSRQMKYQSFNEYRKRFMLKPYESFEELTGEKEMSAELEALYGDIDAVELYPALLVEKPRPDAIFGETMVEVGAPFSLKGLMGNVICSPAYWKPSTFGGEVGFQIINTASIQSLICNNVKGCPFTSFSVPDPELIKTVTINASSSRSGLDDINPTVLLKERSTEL
Description: Inhibition of COX-2 (unknown origin) incubated for 5 to 10 mins by fluorometric analysis

RAW264.7 [2] = experiment: Anti-inflammatory activity against LPS-stimulated mouse RAW264.7 cells assessed as inhibition of IL-6 expression at 10 ug by qRT-PCR analysis relative to control; type: functional; parameters: scale not given: the % may be the effect or the level left; conditions: dose 10 µg
RAW264.7 [3] = experiment: Anti-inflammatory activity against LPS-stimulated mouse RAW264.7 cells assessed as inhibition of TNF alpha expression at 10 ug by qRT-PCR analysis relative to control; type: functional; parameters: scale not given: the % may be the effect or the level left; conditions: dose 10 µg

Row | IC50 [1] [µM] | Compound | Activity (RAW264.7 [2]) [%] | Activity (RAW264.7 [3]) [%]
1 | 295 | CC1=Nc2c(/N=N/c3ccc(O)cc3)c(N)nn2C1=O | – | –
2 | 15.9 | CC(=O)Nc1nn2c(NC(C)=O)cc(=O)[nH]c2c1/N=N/c1ccc(O)cc1 | – | –
3 | 84.8 | N#Cc1c(-c2ccccc2Cl)nc2c(/N=N/c3ccc(O)cc3)c(N)nn2c1N | – | –
4 | 36.5 | Nc1n[nH]c(/N=C2/C(=O)Nc3ccc(S(=O)(=O)N4CCCC4)cc32)c1/N=N/c1ccc(O)cc1 | – | –
5 | 61.4 | Nc1n[nH]c(N=c2c(=O)c3ccccc3c2=O)c1/N=N/c1ccc(O)cc1 | – | –
6 | 67.5 | COC(=O)c1cc(=O)n2nc(N)c(/N=N/c3ccc(O)cc3)c2[nH]1 | – | –
7 | 21.1 | COc1ccc(-c2nc3c(/N=N/c4ccc(O)cc4)c(N)nn3c(N)c2C#N)cc1 | – | –
8 | 46.3 | Cc1cc(C)n2nc(N)c(/N=N/c3ccc(O)cc3)c2n1 | – | –
9 | 79.3 | CCOC(=O)C1=Nc2c(/N=N/c3ccc(O)cc3)c(N)nn2C1=O | – | –
10 | 125 | CCOC(=O)CC(=O)Nc1[nH]nc(N)c1/N=N/c1ccc(O)cc1 | – | –
11 | 3.37 | Nc1nn2c(-c3cccs3)cc(-c3cccs3)nc2c1/N=N/c1ccc(O)cc1 | 70.3 | 59.2
12 | 5.68 | Cc1cc(=O)n2nc(N)c(/N=N/c3ccc(O)cc3)c2[nH]1 | 65.8 | 63.1
13 | – | Cc1ccc(-c2cc(C(F)(F)F)nn2-c2ccc(S(N)(=O)=O)cc2)cc1 [CELECOXIB] | 76.8 | 72.7

Reference: ChEMBL document CHEMBL5352495, “Development of novel pyrazole, imidazo[1,2-b]pyrazole, and pyrazolo[1,5-a]pyrimidine derivatives as a new class of COX-2 inhibitors with immunomodulatory potential” (Eur J Med Chem, 2023)
